Measured values from PubChem BioAssay (NCI).
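Cultured in 96-well plates, cells were exposed to test compound for 48 hours across five concentrations. GI50 is the concentration that inhibits growth by half. TGI: concentration producing complete growth inhibition.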

Assays:
Assay in all cases: NCI anticancer screen, dose series, 48 h
K-562 leukemia = tested on: K-562 leukemia
786-0 renal = tested on: 786-0 renal
RPMI-8226 leukemia = tested on: RPMI-8226 leukemia
UO-31 renal = tested on: UO-31 renal
MOLT-4 leukemia = tested on: MOLT-4 leukemia
TK-10 renal = tested on: TK-10 renal
HL-60(TB) leukemia = tested on: HL-60(TB) leukemia
HCT-15 colon = tested on: HCT-15 colon
UACC-62 melanoma = tested on: UACC-62 melanoma
NCI-H23 lung = tested on: NCI-H23 lung
BT-549 breast = tested on: BT-549 breast
T-47D breast = tested on: T-47D breast
UACC-257 melanoma = tested on: UACC-257 melanoma
SNB-19 CNS = tested on: SNB-19 CNS
DU-145 prostate = tested on: DU-145 prostate
HS 578T breast = tested on: HS 578T breast
SK-OV-3 ovarian = tested on: SK-OV-3 ovarian
A498 renal = tested on: A498 renal
SF-268 CNS = tested on: SF-268 CNS
NCI-H522 lung = tested on: NCI-H522 lung
SR leukemia = tested on: SR leukemia
SF-295 CNS = tested on: SF-295 CNS
RXF 393 renal = tested on: RXF 393 renal
HCC-2998 colon = tested on: HCC-2998 colon
CAKI-1 renal = tested on: CAKI-1 renal
PC-3 prostate = tested on: PC-3 prostate
ACHN renal = tested on: ACHN renal
NCI/ADR-RES ovarian = tested on: NCI/ADR-RES ovarian
OVCAR-3 ovarian = tested on: OVCAR-3 ovarian
OVCAR-5 ovarian = tested on: OVCAR-5 ovarian
NCI-H226 lung = tested on: NCI-H226 lung
OVCAR-8 ovarian = tested on: OVCAR-8 ovarian
HOP-92 NSCLC = tested on: HOP-92 NSCLC
MALME-3M melanoma = tested on: MALME-3M melanoma
M14 melanoma = tested on: M14 melanoma
KM12 colon = tested on: KM12 colon
IGROV1 ovarian = tested on: IGROV1 ovarian
SF-539 CNS = tested on: SF-539 CNS
HCT-116 colon = tested on: HCT-116 colon
SNB-75 CNS = tested on: SNB-75 CNS
HOP-62 NSCLC = tested on: HOP-62 NSCLC
SW-620 colon = tested on: SW-620 colon
SN12C renal = tested on: SN12C renal
MDA-MB-435 = tested on: MDA-MB-435
A549 NSCLC = tested on: A549 NSCLC
SK-MEL-2 melanoma = tested on: SK-MEL-2 melanoma
U251 CNS = tested on: U251 CNS
OVCAR-4 ovarian = tested on: OVCAR-4 ovarian
SK-MEL-5 melanoma = tested on: SK-MEL-5 melanoma
HT29 colon = tested on: HT29 colon
MDA-MB-231 breast = tested on: MDA-MB-231 breast
LOX IMVI melanoma = tested on: LOX IMVI melanoma
SK-MEL-28 melanoma = tested on: SK-MEL-28 melanoma
EKVX NSCLC = tested on: EKVX NSCLC

CCCCCCCCCCCCCC[N+](C)(C)CCCCCCCCCCCCCC
GI50 (K-562 leukemia): 2.89 µM
TGI (K-562 leukemia): 9.8 µM
GI50 (786-0 renal): 2.02 µM
TGI (786-0 renal): 4.92 µM
GI50 (RPMI-8226 leukemia): 1.77 µM
TGI (RPMI-8226 leukemia): 4.44 µM
GI50 (UO-31 renal): 4.44 µM
TGI (UO-31 renal): > 100 µM
GI50 (MOLT-4 leukemia): 2.41 µM
TGI (MOLT-4 leukemia): 6.44 µM
GI50 (TK-10 renal): 2.53 µM
TGI (TK-10 renal): 7.03 µM
GI50 (HL-60(TB) leukemia): 2.07 µM
TGI (HL-60(TB) leukemia): 4.89 µM
GI50 (HCT-15 colon): 3.33 µM
TGI (HCT-15 colon): > 100 µM
GI50 (UACC-62 melanoma): 1.89 µM
TGI (UACC-62 melanoma): 5.7 µM
GI50 (NCI-H23 lung): 2.12 µM
TGI (NCI-H23 lung): 6.13 µM
GI50 (BT-549 breast): 2.38 µM
TGI (BT-549 breast): 5.47 µM
GI50 (T-47D breast): 2.2 µM
TGI (T-47D breast): 7.73 µM
GI50 (UACC-257 melanoma): 2.49 µM
TGI (UACC-257 melanoma): 8.61 µM
GI50 (SNB-19 CNS): 2.38 µM
TGI (SNB-19 CNS): 10 µM
GI50 (DU-145 prostate): 3.42 µM
TGI (DU-145 prostate): 12.5 µM
GI50 (HS 578T breast): 5.65 µM
TGI (HS 578T breast): 24.8 µM
GI50 (SK-OV-3 ovarian): 3.6 µM
TGI (SK-OV-3 ovarian): 19.7 µM
GI50 (A498 renal): 5.07 µM
TGI (A498 renal): 28 µM
GI50 (SF-268 CNS): 2.92 µM
TGI (SF-268 CNS): 8.38 µM
GI50 (NCI-H522 lung): 1.93 µM
TGI (NCI-H522 lung): 5.17 µM
GI50 (SR leukemia): 2.46 µM
TGI (SR leukemia): 9.96 µM
GI50 (SF-295 CNS): 7.72 µM
TGI (SF-295 CNS): 37.7 µM
GI50 (RXF 393 renal): 1.28 µM
TGI (RXF 393 renal): 2.78 µM
GI50 (HCC-2998 colon): 2.26 µM
TGI (HCC-2998 colon): 5.28 µM
GI50 (CAKI-1 renal): 3.56 µM
TGI (CAKI-1 renal): 24.3 µM
GI50 (PC-3 prostate): 1.85 µM
TGI (PC-3 prostate): 4.45 µM
GI50 (ACHN renal): 2.62 µM
TGI (ACHN renal): 6.85 µM
GI50 (NCI/ADR-RES ovarian): 7.42 µM
TGI (NCI/ADR-RES ovarian): 63.4 µM
GI50 (OVCAR-3 ovarian): 3.58 µM
TGI (OVCAR-3 ovarian): 20.5 µM
GI50 (OVCAR-5 ovarian): 2.92 µM
TGI (OVCAR-5 ovarian): 9.91 µM

COC12C=C/C(=C(/C(=O)OCc3ccccn3)C(=O)CCCCCCCCC3(OC)C=C/C(=C(/C(=O)OCc4ccccn4)C(=O)CCCCCCCC1)O3)O2
GI50 (K-562 leukemia): 0.331 µM
TGI (K-562 leukemia): > 100 µM
GI50 (786-0 renal): 0.326 µM
TGI (786-0 renal): 1.05 µM
GI50 (NCI-H226 lung): 0.25 µM
TGI (NCI-H226 lung): 0.648 µM
GI50 (RPMI-8226 leukemia): 0.371 µM
TGI (RPMI-8226 leukemia): 1.85 µM
GI50 (OVCAR-8 ovarian): 0.406 µM
TGI (OVCAR-8 ovarian): > 100 µM
GI50 (HOP-92 NSCLC): 1.65 µM
TGI (HOP-92 NSCLC): 3.54 µM
GI50 (MOLT-4 leukemia): 0.301 µM
TGI (MOLT-4 leukemia): > 100 µM
GI50 (TK-10 renal): 1.69 µM
TGI (TK-10 renal): 4.19 µM
GI50 (HL-60(TB) leukemia): 0.306 µM
TGI (HL-60(TB) leukemia): 2.17 µM
GI50 (MALME-3M melanoma): 0.325 µM
TGI (MALME-3M melanoma): 1.38 µM
GI50 (M14 melanoma): 0.252 µM
TGI (M14 melanoma): 0.571 µM
GI50 (KM12 colon): 0.354 µM
TGI (KM12 colon): 1.39 µM
GI50 (IGROV1 ovarian): 0.421 µM
TGI (IGROV1 ovarian): 3.73 µM
GI50 (SF-539 CNS): 0.557 µM
TGI (SF-539 CNS): 3.2 µM
GI50 (HCT-116 colon): 0.223 µM
TGI (HCT-116 colon): 0.47 µM
GI50 (UACC-62 melanoma): 0.348 µM
TGI (UACC-62 melanoma): 1.22 µM
GI50 (SNB-75 CNS): 0.827 µM
TGI (SNB-75 CNS): 2.37 µM
GI50 (NCI-H23 lung): 0.249 µM
TGI (NCI-H23 lung): 0.689 µM
GI50 (BT-549 breast): 0.401 µM
TGI (BT-549 breast): 2.07 µM
GI50 (T-47D breast): 0.588 µM
TGI (T-47D breast): 6.24 µM
GI50 (UACC-257 melanoma): 1.05 µM
TGI (UACC-257 melanoma): 4.27 µM
GI50 (SNB-19 CNS): 1.43 µM
TGI (SNB-19 CNS): > 100 µM
GI50 (HOP-62 NSCLC): 0.318 µM
TGI (HOP-62 NSCLC): 1.06 µM
GI50 (SW-620 colon): 0.385 µM
TGI (SW-620 colon): 2.09 µM
GI50 (DU-145 prostate): 0.564 µM
TGI (DU-145 prostate): 1.87 µM
GI50 (HS 578T breast): 0.783 µM
TGI (HS 578T breast): > 100 µM
GI50 (SN12C renal): 0.356 µM
TGI (SN12C renal): 1.21 µM
GI50 (SK-OV-3 ovarian): 0.889 µM
TGI (SK-OV-3 ovarian): 60.9 µM
GI50 (A498 renal): 1.06 µM
TGI (A498 renal): 2.29 µM
GI50 (SF-268 CNS): 1.12 µM
TGI (SF-268 CNS): 4.81 µM
GI50 (MDA-MB-435): 0.209 µM
TGI (MDA-MB-435): 0.48 µM
GI50 (NCI-H522 lung): 0.345 µM
TGI (NCI-H522 lung): 1.71 µM
GI50 (A549 NSCLC): 0.626 µM
TGI (A549 NSCLC): 3.49 µM
GI50 (SR leukemia): 0.364 µM
TGI (SR leukemia): > 100 µM
GI50 (SK-MEL-2 melanoma): 1.18 µM
TGI (SK-MEL-2 melanoma): 3.85 µM
GI50 (U251 CNS): 0.386 µM
TGI (U251 CNS): 1.52 µM
GI50 (SF-295 CNS): 0.397 µM
TGI (SF-295 CNS): 2.15 µM
GI50 (RXF 393 renal): 0.192 µM
TGI (RXF 393 renal): 0.357 µM
GI50 (HCC-2998 colon): 0.212 µM
TGI (HCC-2998 colon): 0.518 µM
GI50 (CAKI-1 renal): 0.481 µM
TGI (CAKI-1 renal): 3.4 µM
GI50 (PC-3 prostate): 0.719 µM
TGI (PC-3 prostate): 3.98 µM
GI50 (OVCAR-4 ovarian): 0.332 µM
TGI (OVCAR-4 ovarian): 2.28 µM
GI50 (SK-MEL-5 melanoma): 0.221 µM
TGI (SK-MEL-5 melanoma): 0.492 µM
GI50 (OVCAR-3 ovarian): 0.326 µM
TGI (OVCAR-3 ovarian): 1.1 µM
GI50 (HT29 colon): 0.423 µM
TGI (HT29 colon): 2.89 µM
GI50 (OVCAR-5 ovarian): 0.538 µM
TGI (OVCAR-5 ovarian): 5.62 µM
GI50 (MDA-MB-231 breast): 0.485 µM
TGI (MDA-MB-231 breast): > 100 µM
GI50 (LOX IMVI melanoma): 0.188 µM
TGI (LOX IMVI melanoma): 0.417 µM
GI50 (SK-MEL-28 melanoma): 0.481 µM
TGI (SK-MEL-28 melanoma): 3.62 µM
GI50 (EKVX NSCLC): 0.614 µM
TGI (EKVX NSCLC): 3.72 µM
